In patent US20020110590A1, “Pharmaceutical formulation containing DEMO for the treatment of cancer” (Ilex Oncology, Inc., priority 1996, published 2002):

Assays:
Solubility of DFMO = type: physicochemical
[1] = healthy men; cited from earlier work
[2] = any route of drug administration; cited from earlier work
polyamine pools = conditions: cited from earlier work
[3] = tested on: advanced solid tumors or lymphomas; conditions: patients with advanced solid tumors or lymphomas; cited from earlier work
[4] = oral administration; cited from earlier work
[5] = target: T1, ornithine decarboxylase (ODC) (Homo sapiens, UniProt P11926); conditions: reported by some (Danzin, 1987); cited from earlier work
T1 sequence (P11926 1-461): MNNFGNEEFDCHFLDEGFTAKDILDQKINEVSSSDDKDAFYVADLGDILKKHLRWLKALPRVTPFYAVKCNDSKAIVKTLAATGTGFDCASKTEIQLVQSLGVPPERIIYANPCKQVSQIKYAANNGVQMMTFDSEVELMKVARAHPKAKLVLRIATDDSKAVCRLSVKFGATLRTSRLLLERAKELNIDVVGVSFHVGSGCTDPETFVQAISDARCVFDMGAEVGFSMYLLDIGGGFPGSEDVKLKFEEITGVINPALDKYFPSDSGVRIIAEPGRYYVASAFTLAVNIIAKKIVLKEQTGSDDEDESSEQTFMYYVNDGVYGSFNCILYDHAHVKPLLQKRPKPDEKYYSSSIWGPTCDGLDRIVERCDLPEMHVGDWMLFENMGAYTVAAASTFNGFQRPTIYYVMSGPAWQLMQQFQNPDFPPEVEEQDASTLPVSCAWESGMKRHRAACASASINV

SMILES	water solubility (Solubility of DFMO)	solubility of DFMO at a neutral pH (Solubility of DFMO; neutral pH versus acid)	elimination half-life t½ [1]	share of drug elimination accounted for by renal clearance [1] [%]	therapeutic responses [2]	minimum effective dose (MED) in significantly reducing polyamine pools in vivo (polyamine pools)	therapeutic responses [3]	maximum tolerated dose [4]	enantiomer responsible for ODC inhibition [5]
NCCC[C@](N)(C(=O)O)C(F)F (racemic) [DFMO, alpha-difluoromethylornithine]	very water-soluble	relatively lower solubility	about 3.5 hours	83	No therapeutic responses	about 0.43 g/day	No therapeutic responses	about 12 g/m^2/day	–
NCCC[C@](N)(C(=O)O)C(F)F [(−)-DFMO, alpha-difluoromethylornithine]	–	–	–	–	–	–	–	–	enantiomer primarily responsible for ODC inhibition
